# T1: RIG-I (DDX58), full-length (Homo sapiens) (UniProt O95786)
# T1 sequence: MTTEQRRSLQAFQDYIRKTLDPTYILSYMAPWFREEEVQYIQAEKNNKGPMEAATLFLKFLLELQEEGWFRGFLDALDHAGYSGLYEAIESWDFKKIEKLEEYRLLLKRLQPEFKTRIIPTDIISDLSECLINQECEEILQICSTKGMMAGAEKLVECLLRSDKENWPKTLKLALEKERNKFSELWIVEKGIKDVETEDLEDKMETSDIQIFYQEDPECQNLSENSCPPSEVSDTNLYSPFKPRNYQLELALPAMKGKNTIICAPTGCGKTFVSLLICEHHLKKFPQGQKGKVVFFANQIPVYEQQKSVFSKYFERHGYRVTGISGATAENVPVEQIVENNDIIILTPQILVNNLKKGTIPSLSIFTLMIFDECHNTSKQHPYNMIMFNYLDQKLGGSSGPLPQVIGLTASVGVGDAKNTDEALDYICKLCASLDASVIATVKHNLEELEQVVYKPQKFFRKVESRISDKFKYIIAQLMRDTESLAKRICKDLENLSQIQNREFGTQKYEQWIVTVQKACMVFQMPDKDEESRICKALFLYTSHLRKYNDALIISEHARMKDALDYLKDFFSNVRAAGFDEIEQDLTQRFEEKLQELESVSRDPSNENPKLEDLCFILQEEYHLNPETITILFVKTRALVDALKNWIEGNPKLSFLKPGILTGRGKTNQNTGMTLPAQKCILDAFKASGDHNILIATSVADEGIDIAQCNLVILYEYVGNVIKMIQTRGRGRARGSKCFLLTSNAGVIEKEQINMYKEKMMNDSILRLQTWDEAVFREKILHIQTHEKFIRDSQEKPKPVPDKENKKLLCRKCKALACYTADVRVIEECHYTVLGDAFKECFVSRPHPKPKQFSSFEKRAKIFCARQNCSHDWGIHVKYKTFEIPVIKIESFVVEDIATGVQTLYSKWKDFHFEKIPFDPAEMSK
# T2: RIG-I (Homo sapiens, UniProt O95786)
# T2 construct: HEK293 cells overexpressing either the full length RIG-I; host or cells: HEK293; HCT116 also for the qRT-PCR validation
# T2 sequence (O95786 1-925): T1 sequence
# B1: SL I+II: synthetic RNA of U1 stem loops I and II, SEQ ID NO:19 (nucleic acid)
# chain: GGGAGATACCATGATCACGAAGGTGGTTTTCCCAGGGCGAGGCTTATCCATTGCACTCCGGATGTGCTGACCCC
# modifications: listed as DNA, chemistry not given here
# B2: SL II+III: synthetic RNA of U1 stem loops II and III, SEQ ID NO:20 (nucleic acid)
# chain: GGGCGAGGCTTATCCATTGCACTCCGGATGTGCTGACCCCTGCGATTTCCCCAAATGTGGGAAACTCGACTGC
# modifications: listed as DNA, chemistry not given here
# How the values were obtained:
# MC38 tumors [1] = experiment: MC38 tumor growth after local radiation (20Gy); type: in vivo, mouse
# Procedure: 1×10^6 MC38 tumor cells were subcutaneously injected into the flank of mice.
# (§1) Tumor volumes were measured along three orthogonal axes (a, b, and c) and calculated as tumor volume=abc/2. Tumors were allowed to grow for 9-10 days and treated by local radiation (Deng et al., 2014). Briefly, the body was protected with a lead cover and the tumor was exposed, allowing local radiation. Tumors were irradiated using RS-2000 Biological Irradiator (RAD SOURCE) at the dose of 20Gy with 160 kV and 25 mA. For type I IFN blockade experiments, 200 μg anti-IFAR1 mAb was intratumorally injected on day 0 and 2 after radiation. For HMGB-1 blockade experiments, 200 μg anti-HMGB-1 mAb (clone 3B1, generated by inventors) was administered i.p. on day 0 and 3 after radiation. For CD8^+ T cell depletion experiments, 300 μg anti-CD8 mAb (Clone 2.43, BioXCell) was delivered 5 times by i.p. injection every three days starting one day before radiation. For exogenous IFN-β treatment experiments, 1×10^10 viral particles of Ad-IFN-β (Burnette, B., et al., The Efficacy of Radiotherapy Relies upon Induction of Type I Interferon-Dependent Innate and Adaptive Immunity, Cancer Res Apr. 1, 2011 71; 2488; (doi: 10.1158/0008-5472.CAN-10-2820)) were intratumorally administered on day 2 after radiation. Ad-null was used as negative control. […]
# MC38 tumors [2] = experiment: ELISPOT of IFNγ-secreting tumor-specific CD8+ T cells from tumor DLNs; type: in vivo, mouse
# Procedure: as §1
# BMDCs = experiment: BMDC cross-priming of CD8+ T cells with irradiated tumor cells (ELISPOT); type: cell-based, mouse; conditions: IFN-β 10 ng/ml in co-culture; DMXAA 100 μg/ml, 3 h
# Procedure: Single-cell suspensions of bone marrow cells were obtained from C57BL/6J, STING^−/− and IRF3^−/− mice. Bone marrow from cGAS^−/− mice was kindly provided by Dr. Zhijian J. Chen of University of Texas Southwestern Medical Center, Dallas. The cells were placed in 10 cm petri dish and cultured in RPMI-1640 medium containing 10% fetal bovine serum ([…]), supplemented with 20 ng/ml GM-CSF. Fresh media with GM-CSF was added into culture on day 3. BMDCs (bone marrow-derived dendritic cells) were harvest for stimulation assay on day 7. 8×10^6 MC38-SIY^hi cells were plated into 10 cm cell culture dishes overnight, and then pretreated with 40Gy and incubated for 5 hours. BMDCs were added and co-cultured with MC38-SIY″ cells at the ratio of 1:1 in the presence of fresh GM-CSF for additional 8 hours. Subsequently purified CD11c^+ cells with EasySep™ Mouse CD11c Positive Selection Kit II ([…]) were incubated with isolated CD8^+ T cells from naive 2C mice for three days. For the bypassing assay, 10 ng/ml murine IFN-β was added in the co-culture of BMDCs and tumor cells, or 100 μg/ml DMXAA was added into isolated CD11c^+ cells with additional 3 h incubation. For IFN-β detection, BMDCs were co-cultured with tumor cells at the ratio of 1:1 for additional 8 hours, and 1×10^6 cells/ml purified CD11c^+ cells were seed into 96-well plates for 48 hours. […]
# [3] = tested on: RIG-I^−/− and WT MEFs; shRIG-I D54 and HCT116 tumor cells; experiment: Caspase 3/7 activity in response to chemotherapy drugs with or without RIG-I; type: cell-based; conditions: increasing doses of drug
# [4] = target: T1, RIG-I (DDX58), full-length (Homo sapiens); experiment: pulldown; conditions: CLIP-qPCR, enrichment in RIG-I complexes from irradiated (6 Gy) vs non-irradiated HEK293; also enriched in HCT116
# RIG-I = target: T2, RIG-I; experiment: HEK293 IFN-beta promoter dual luciferase reporter, RNA stimulation; type: cell-based; conditions: 1 μg synthetic oligonucleotide, 24 hour stimulation
# Procedure: We also used reporter HEK293 cells as simple technique to evaluate ability of the given RNA to stimulate IFN-beta production in preliminary in vitro experiments. Technically this was performed as follows: RNA stimulation of HEK293 IFN-beta reporter cells HEK293 cells were seeded in a 24-well plate overnight at a density of 1.5×10^5 cells/ml (75,000 cells/well). Cells were co-transfected with 100 ng of plasmid construct (pCAGGS empty vector, pCAGGS-RIG-I full-length, pCAGGS-RIG-I helicase-RD mutant construct, and […] mutant construct), together with 80 ng of a firefly luciferase reporter gene driven by an IFN-beta promoter and 20 ng of a Renilla luciferase (pRL-null) transfection control. Transfections were performed using a cationic lipid agent, Fugene HD (Promega), at a 3:1 lipid:DNA ratio. Twenty-four hours post-transfection, cells were then stimulated with 1 μg RNA* mixed with Fugene HD at 2:1 lipid: RNA ratio for 24 hours. 20 μl cell lysates were collected in opaque 96-well plates and analyzed for IFN-beta-luciferase and Renilla activity using a BioTek Synergy HT plate reader. The transfection efficiency across different wells was normalized by dividing the IFN-beta luciferase activity with the Renilla activity. All values were further normalized to the unstimulated controls in cells transfected with the empty vector. All pCAGGS RIG-I constructs used in this study were generous gifts from Dr. Jenish Patel and Dr. Adolfo Garcia-Sastre of The Icahn School of Medicine at Mount Sinai in New York City. Synthetic RNA comprised of various stem loop regions of the human U1 snRNA were purchased from IDT Oligos as reported in (Bernard et al., 2012). U1 stem loop I sequence: [NT] ID NO:15); U1 stem loop II sequence: [NT] ID NO:16); U1 stem loop III sequence: [NT] ID NO:17); U1 stem loop IV sequence: [NT] ID NO:18); U1 stem loops I and II sequence: [NT] ID NO:19); U1 stem loops II and III sequence: [NT] ID NO:20). In vitro transcribed U1 RNA stimulation: Full length U1 (pT7U1) plasmid was generously provided by Dr. Joan Steitz (Yale School of Medicine, Yale University). […]
molecule,measurement,setting,value
"Nc1nc2c(ncn2[C@@H]2O[C@@H]3COP(=O)(O)O[C@H]4[C@@H](O)[C@H](n5cnc6c(N)ncnc65)O[C@@H]4COP(=O)(O)O[C@@H]2[C@@H]3O)c(=O)[nH]1 [2′3′-cGAMP, cyclic [G(2′,5′)pA(3′,5′)p]]",synergy with radiation,MC38 tumors [1]; STING^−/− mice,abrogated
same,"tumor burden, combination with radiation compared to either alone","MC38 tumors [1]; WT mice, 10 μg intratumorally on day 2 and 6 after 20Gy",effectively reduce tumor burden
same,number of tumor-specific IFN-γ-producing CD8+ T cells in DLNs,"MC38 tumors [2]; combination with radiation vs radiation or 2′3′-cGAMP alone, WT mice",significantly increased
same,antitumor CD8+ T cell response induced by combination with radiation,MC38 tumors [2]; deficiency of STING in the host,dampened
Cc1ccc2c(=O)c3cccc(CC(=O)O)c3oc2c1C [DMXAA],function of STING^−/− BMDCs (cross-priming),BMDCs,fails to rescue
same,function of cGAS^−/− BMDCs (cross-priming),BMDCs,restored
N.N.[Cl][Pt][Cl] [cisplatin],"caspase 3/7 activity in response to drug treatment, RIG-I absent or depleted vs control cells",[3],reduced caspase 3/7 activity
COc1cccc2c1C(=O)c1c(O)c3c(c(O)c1C2=O)C[C@@](O)(C(=O)CO)C[C@@H]3O[C@H]1C[C@H](N)[C@H](O)[C@H](C)O1 [doxorubicin],"caspase 3/7 activity in response to drug treatment, RIG-I absent or depleted vs control cells",[3],reduced caspase 3/7 activity
U1 snRNA (endogenous),binding signal,[4],6 fold
B1,IFN-beta response (reporter activity in HEK293; IFN-b in MEF supernatant),RIG-I,potent inducers of IFN-beta response
B2,IFN-beta response (reporter activity in HEK293; IFN-b in MEF supernatant),RIG-I,potent inducers of IFN-beta response
